The source of these data is patent US4812442A, “Tripeptide renin inhibitors” (priority 1987, dated 1989).

Counter-ions that a name gives are not always drawn. Square brackets hold non-standard residues; d marks the D form. Peptide text beside a SMILES is read from it. * marks the point of attachment. Sta = CC(C)C[C@H](N)[C@@H](O)CC(=O)O; Isovaleryl = CC(C)CC(=O)*

The test system of the first assay is nephrectomized rats.
Assay: not given
To be noted: after the injection of hog renin into nephrectomized rats; cited from earlier work.
In the case of `CC(C)CC(=O)N[C@H](C(=O)N[C@H](C(=O)N[C@@H](CC(C)C)[C@@H](O)CC(=O)N[C@@H](C)C(=O)N[C@@H](CC(C)C)[C@@H](O)CC(=O)O)C(C)C)C(C)C` [pepstatin] (Isovaleryl-VV[Sta]A[Sta]-OH), the “effect on blood pressure in vivo” value is reported as “reduces blood pressure”.

The target of a further assay is T1, renin (Homo sapiens, UniProt P00797).
T1 sequence (P00797 67-406): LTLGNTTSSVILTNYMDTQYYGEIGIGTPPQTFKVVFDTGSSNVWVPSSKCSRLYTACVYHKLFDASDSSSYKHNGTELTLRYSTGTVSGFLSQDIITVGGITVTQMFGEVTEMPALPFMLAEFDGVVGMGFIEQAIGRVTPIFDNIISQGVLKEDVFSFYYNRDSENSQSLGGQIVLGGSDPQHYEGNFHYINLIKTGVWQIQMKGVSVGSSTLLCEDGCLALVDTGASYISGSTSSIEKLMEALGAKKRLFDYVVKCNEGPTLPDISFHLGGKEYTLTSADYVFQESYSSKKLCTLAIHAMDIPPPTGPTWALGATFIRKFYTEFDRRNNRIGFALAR
The assay is described as follows: Renin inhibition IC50 (methods of J. Med. Chem., 1985, 28, 1789-1790). Format: biochemical.
Conditions: not given
From the text:
The following examples are intended to be representative and not limiting. IC50 results were obtained according to the methods described in J. Med. Chem., 1985, 28, 1789-1790.
One may read the IC50 as the concentration at which inhibition is half-maximal. As to `CC(C)(C)OC(=O)N[C@@H](Cc1ccccc1)C(=O)N[C@@H](Cc1c[nH]cn1)C(=O)N[C@@H](CC1CCCCC1)[C@@H](O)CC(=O)NC1C[N+]2(C)CCC1CC2` (stereo partly drawn) [Example 2, N^α -t-butoxycarbonyl-L-phenylalanyl-L-histidyl-(3S,4S)-4-amino-5-cyclohexyl-3-hydroxy-pentanoyl-1-methylquinuclidium-3-yl amide acetate], half-maximal inhibition (IC50) required 38 nM.
On the same count and under the same terms, the result for `CC(C)(C)OC(=O)N[C@@H](Cc1ccccc1)C(=O)N[C@@H](Cc1c[nH]cn1)C(=O)N[C@@H](CC1CCCCC1)[C@@H](O)CC(=O)NC1C[N+]2(CCCCO)CCC1CC2` (stereo partly drawn) [Example 3, N^α -t-butoxycarbonyl-L-phenylalanyl-L-histidyl(3S,4S)-4-amino-5-cyclohexyl-3-hydroxypentanoyl-1-(4-hydroxybutyl)-quinuclidinium-3-yl amide acetate] reads 33 nM.

Staying with this assay, now noted: renin inhibition; read-out: IC50.
Take `CC[C@H](C)NC(=O)C[C@H](O)[C@H](CC1CCCCC1)NC(=O)[C@H](Cc1c[nH]cn1)NC(=O)[C@H](Cc1ccccc1)NC(=O)OC(C)(C)C` [Example 9, N^α -t-butoxycarbonyl-L-phenylalanyl-L-histidyl(3S,4S)-4-amino-5-cyclohexyl-3-hydroxypentanoyl-2S-(+)-butyl amide]: the IC50 was 32 nM.
As for `CC(C)(C)OC(=O)N[C@@H](Cc1ccccc1)C(=O)N[C@@H](Cc1c[nH]cn1)C(=O)N[C@@H](CC1CCCCC1)[C@@H](O)CC(=O)N1CC[S+]([O-])CC1` [Example 6, Boc-Phe-His-ACHPA-4-thiamorpholine-1-oxide], the IC50 came to 67 nM.
For the molecule `CC[C@H](C)[C@@H](CN(C)C)NC(=O)C[C@H](O)[C@H](CC1CCCCC1)NC(=O)[C@H](Cc1c[nH]cn1)NC(=O)[C@H](Cc1ccccc1)NC(=O)OC(C)(C)C` [Example 12], the IC50 came out at 5 nM.
The same measure, in the same setting: under `CC(C)(C)OC(=O)N[C@@H](Cc1ccccc1)C(=O)N[C@@H](Cc1c[nH]cn1)C(=O)N[C@@H](CC1CCCCC1)[C@@H](O)CC(=O)NC1CN2CCC1CC2` (stereo partly drawn) [Example 1, N^α -t-butoxycarbonyl-L-phenylalanyl-L-histidyl(3S,4S)-4-amino-5-cyclohexyl-3-hydroxypentanoyl-3-quinuclidinyl amide] stands 33 nM; under `CC[C@H](C)[C@@H](CN)NC(=O)C[C@H](O)[C@H](CC1CCCCC1)NC(=O)[C@H](Cc1c[nH]cn1)NC(=O)[C@H](Cc1ccccc1)NC(=O)OC(C)(C)C` [Example 11], 33 nM.
The same measure, in the same setting: the result for `CC(C)(C)OC(=O)N[C@@H](Cc1ccccc1)C(=O)N[C@@H](Cc1c[nH]cn1)C(=O)N[C@@H](CC1CCCCC1)[C@@H](O)CC(=O)N1CCS(=O)(=O)CC1` [Example 7, Boc-Phe-His-ACHPA-4-thiamorpholine-1,1-dioxide] reads 55 nM; that for `CC[C@H](C)[C@@H](C[N+](C)(C)CCO)NC(=O)C[C@H](O)[C@H](CC1CCCCC1)NC(=O)[C@H](Cc1c[nH]cn1)NC(=O)[C@H](Cc1ccccc1)NC(=O)OC(C)(C)C` [Example 19, acetate salt], 10 nM; that for `CC(C)(C)OC(=O)N[C@@H](Cc1ccccc1)C(=O)N[C@@H](Cc1c[nH]cn1)C(=O)N[C@@H](CC1CCCCC1)[C@@H](O)CC(=O)NC1C[N+]2([O-])CCC1CC2` (stereo partly drawn) [Example 4, N^α -t-butoxycarbonyl-L-phenylalanyl-L-histidyl-(3S,4S)-4-amino-5-cyclohexyl-3-hydroxypentanoyl-quinuclidinium-3-yl-1-oxide amide], 20 nM.
Still for that read-out and setting: the result for `CC(C)(C)OC(=O)N[C@@H](Cc1ccccc1)C(=O)N[C@@H](Cc1c[nH]cn1)C(=O)N[C@@H](CC1CCCCC1)[C@@H](O)CC(=O)N1CCSCC1` [Example 5, Boc-Phe-His-ACHPA-4-thiamorpholine] reads 19 nM; that for `CC[C@H](C)[C@@H](C[N+](C)(C)C)NC(=O)C[C@H](O)[C@H](CC1CCCCC1)NC(=O)[C@H](Cc1c[nH]cn1)NC(=O)[C@H](Cc1ccccc1)NC(=O)OC(C)(C)C` [Example 18, di-acetate salt], 15 nM.
With `CC(C)C[C@H](NC(=O)[C@H](Cc1ccccc1)NC(=O)[C@H](Cc1ccccc1)NC(=O)OC(C)(C)C)[C@@H](O)CC(=O)N1CCN(c2cccc[n+]2[O-])CC1` [Example 17], the IC50 stood at 2000 nM.
